Data reported in patent US10183950B2, “Thienopyrimidine inhibitors of atypical protein kinase C” (Cancer Research Technology Limited, priority 2011, dated 2019).

biological target: T1, full-length human PKCι (Homo sapiens, UniProt P41743); experiment: PKCι IC50 IMAP fluorescence polarisation assay, full-length enzyme; type: biochemical; conditions: full length PKCi at 15 μM ATP; read-out: IC50 in IMAP assay against full length PKCi
T1 construct: Recombinant, full-length human PKCι expressed in Sf21 insect cells is also commercially available; purchased; host or cells: Sf21 insect cells
T1 sequence (P41743 1-596): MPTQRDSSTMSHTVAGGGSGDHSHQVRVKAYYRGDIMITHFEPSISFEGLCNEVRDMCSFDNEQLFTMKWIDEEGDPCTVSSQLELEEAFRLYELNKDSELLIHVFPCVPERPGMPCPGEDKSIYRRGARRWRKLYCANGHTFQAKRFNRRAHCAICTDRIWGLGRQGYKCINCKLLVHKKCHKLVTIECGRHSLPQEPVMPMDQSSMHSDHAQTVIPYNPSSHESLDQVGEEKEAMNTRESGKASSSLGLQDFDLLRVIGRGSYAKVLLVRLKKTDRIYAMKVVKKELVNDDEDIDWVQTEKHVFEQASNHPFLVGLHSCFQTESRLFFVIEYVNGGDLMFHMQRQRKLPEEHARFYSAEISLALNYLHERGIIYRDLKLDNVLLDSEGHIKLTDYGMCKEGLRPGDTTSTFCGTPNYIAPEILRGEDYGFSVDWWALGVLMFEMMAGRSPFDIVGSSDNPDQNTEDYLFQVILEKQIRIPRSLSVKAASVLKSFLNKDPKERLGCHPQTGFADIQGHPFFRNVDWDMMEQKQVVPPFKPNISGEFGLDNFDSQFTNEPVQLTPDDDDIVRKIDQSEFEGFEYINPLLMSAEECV

SMILES	IC50
CC(C)[C@H](N)CNc1nc(-c2ccncc2)nc2c(Br)csc12 [compound 347, (S)-N*1*-(7-Bromo-2-pyridin-4-yl-thieno[3,2-d]pyrimidin-4-yl)-3-methyl-butane-1,2-diamine]	0.1 to 1 µM
Brc1csc2c(N[C@H]3CCNC3)nc(-c3ccncc3)nc12 [compound 344, (7-Bromo-2-pyridin-4-yl-thieno[3,2-d]pyrimidin-4-yl)-(S)-pyrrolidin-3-yl-amine]	1 to 10 µM
CN1CCN(c2ccc(Nc3cc(-c4nc(N[C@@H]5CCNC5)c5sccc5n4)ccn3)nc2)CC1 [compound 603, (2-{2-[5-(4-Methyl-piperazin-1-yl)-pyridin-2-ylamino]-pyridin-4-yl}-thieno[3,2-d]pyrimidin-4-yl)-(R)-pyrrolidin-3-yl-amine]	0.1 to 1 µM
NC(CNc1nc(-c2ccncc2F)nc2c(-c3cccc(CO)c3)csc12)Cc1ccccc1 (stereo in doubt) [compound 425, {3-[4-((R)-2-Amino-3-phenyl-propylamino)-2-(3-fluoro-pyridin-4-yl)-thieno[3,2-d]pyrimidin-7-yl]-phenyl}-methanol]	1 to 10 µM
C[C@H](O)C#Cc1csc2c(N[C@@H]3CCNC3)nc(-c3ccncc3)nc12 [compound 517, (S)-4-[2-Pyridin-4-yl-4-((R)-pyrrolidin-3-ylamino)-thieno[3,2-d]pyrimidin-7-yl]-but-3-yn-2-ol]	< 0.1 µM
COc1ncccc1-c1c(C)sc2c(NC[C@@H](N)Cc3ccccc3)nc(-c3ccncc3)nc12 [compound 465, (S)-N*1*-[7-(2-Methoxy-pyridin-3-yl)-6-methyl-2-pyridin-4-yl-thieno[3,2-d]pyrimidin-4-yl]-3-phenyl-propane-1,2-diamine]	10 to 40 µM
CCC(O)(C#Cc1csc2c(NC[C@@H](N)Cc3ccccc3)nc(-c3ccncc3)nc12)CC [compound 525, 1-[4-(2-Amino-3-phenyl-propylamino)-2-pyridin-4-yl-thieno[3,2-d]pyrimidin-7-yl]-3-ethyl-pent-1-yn-3-ol]	1 to 10 µM
N[C@H](CNc1nc(-c2ccncc2)nc2c(-c3ccn[nH]3)csc12)Cc1ccccc1 [compound 390, (S)-3-Phenyl-N*1*-[7-(2H-pyrazol-3-yl)-2-pyridin-4-yl-thieno[3,2-d]pyrimidin-4-yl]-propane-1,2-diamine]	< 0.1 µM
CC(C)(O)C#Cc1csc2c(N[C@@H]3CCNC3)nc(-c3ccncc3F)nc12 [compound 519, 4-[2-(3-Fluoro-pyridin-4-yl)-4-((R)-pyrrolidin-3-ylamino)-thieno[3,2-d]pyrimidin-7-yl]-2-methyl-but-3-yn-2-ol]	1 to 10 µM
CNCC#Cc1csc2c(NC[C@@H](N)Cc3ccccc3)nc(-c3ccncc3)nc12 [compound 538, (S)-N*1*-[7-(3-Methylamino-prop-1-ynyl)-2-pyridin-4-yl-thieno[3,2-d]pyrimidin-4-yl]-3-phenyl-propane-1,2-diamine]	0.1 to 1 µM
CC(C)(C)c1cc2nc(-c3ccncc3)nc(NC[C@@H](N)Cc3ccccc3)c2s1 [compound 324, (S)-N*1*-(6-tert-Butyl-2-pyridin-4-yl-thieno[3,2-d]pyrimidin-4-yl)-3-phenyl-propane-1,2-diamine]	10 to 40 µM
Fc1cnccc1-c1nc(N[C@@H]2CCNC2)c2scc(Nc3ccon3)c2n1 [compound 497, 2-(3-Fluoro-pyridin-4-yl)-N*7*-isoxazol-3-yl-N*4*- (R)-pyrrolidin-3-yl-thieno[3,2-d]pyrimidine-4,7-diamine]	10 to 40 µM
N[C@H](CNc1nc(-c2ccncc2)nc2c(-c3cn[nH]n3)csc12)Cc1ccccc1 [compound 547, (S)-3-Phenyl-N*1*-[2-pyridin-4-yl-7-(3H-[1,2,3]triazol-4-yl)-thieno[3,2-d]pyrimidin-4-yl]-propane-1,2-diamine]	< 0.1 µM
Cc1sc2c(NC[C@@H](N)Cc3ccccc3)nc(-c3ccncc3)nc2c1-c1cc(F)ccc1OC(C)C [compound 446, (S)-N*1*-[7-(5-Fluoro-2-isopropoxy-phenyl)-6-methyl-2-pyridin-4-yl-thieno[3,2-d]pyrimidin-4-yl]-3-phenyl-propane-1,2-diamine]	10 to 40 µM
N[C@H](CNc1nc(-c2ccncc2)nc2c(C#CC3(O)CC3)csc12)Cc1ccccc1 [compound 532, 1-[4-((S)-2-Amino-3-phenyl-propylamino)-2-pyridin-4-yl-thieno[3,2-d]pyrimidin-7-ylethynyl]-cyclopropanol]	< 0.1 µM
COc1cccc(OC(C)C)c1-c1c(C)sc2c(NC[C@@H](N)Cc3ccccc3)nc(-c3ccncc3)nc12 [compound 440, (S)-N*1*-[7-(2-Isopropoxy-6-methoxy-phenyl)-6-methyl-2-pyridin-4-yl-thieno[3,2-d]pyrimidin-4-yl]-3-phenyl-propane-1,2-diamine]	10 to 40 µM
C[C@@H](F)C#Cc1csc2c(NC[C@@H](N)Cc3ccccc3)nc(-c3ccncc3)nc12 [compound 544, (S)—N*1*-[7-(3-Fluoro-but-1-ynyl)-2-pyridin-4-yl-thieno[3,2-d]pyrimidin-4-yl]-3-phenyl-propane-1,2-diamine]	< 0.1 µM
O[C@@H](CNc1cc(-c2nc(N[C@@H]3CCNC3)c3sccc3n2)ccn1)c1ccccc1 [compound 593, (R)-1-Phenyl-2-{4-[4-((R)-pyrrolidin-3-ylamino)-thieno[3,2-d]pyrimidin-2-yl]-pyridin-2-ylamino}-ethanol]	1 to 10 µM
CC[C@H](O)C#Cc1csc2c(NC[C@@H](N)Cc3ccccc3)nc(-c3ccncc3)nc12 [compound 521]	< 0.1 µM
Cc1[nH]ncc1-c1nc(NC[C@@H](N)Cc2ccccc2)c2sccc2n1 [compound 634, (S)-N*1*-[2-(5-Methyl-1H-pyrazol-4-yl)-thieno[3,2-d]pyrimidin-4-yl]-3-phenyl-propane-1,2-diamine]	1 to 10 µM
COc1cccc(C(=O)Nc2cc(-c3nc(N[C@@H]4CCNC4)c4sccc4n3)ccn2)c1 [compound 596, 3-Methoxy-N-{4-[4-((R)-pyrrolidin-3-ylamino)-thieno[3,2-d]pyrimidin-2-yl]-pyridin-2-yl}-benzamide]	0.1 to 1 µM
CC(C)(N)C#Cc1csc2c(NC[C@@H](N)Cc3ccccc3)nc(-c3ccncc3)nc12 [compound 516, (S)-N*1*-[7-(3-Amino-3-methyl-but-1-ynyl)-2-pyridin-4-yl-thieno[3,2-d]pyrimidin-4-yl]-3-phenyl-propane-1,2-diamine]	1 to 10 µM
N[C@H](CNc1nc(-c2ccncc2F)nc2ccsc12)Cc1ccccc1 [compound 355, (S)-N*1*-[2-(3-Fluoro-pyridin-4-yl)-thieno[3,2-d]pyrimidin-4-yl]-3-phenyl-propane-1,2-diamine]	1 to 10 µM
Cc1csc(-c2csc3c(NC[C@@H](N)Cc4ccccc4)nc(-c4ccncc4)nc23)c1 [compound 395, (S)-N*1*-[7-(4-Methyl-thiophen-2-yl)-2-pyridin-4-yl-thieno[3,2-d]pyrimidin-4-yl]-3-phenyl-propane-1,2-diamine]	1 to 10 µM
N[C@H](CNc1nc(-c2ccncc2F)nc2c(Nc3ccccc3)csc12)Cc1ccccc1 [compound 491, N*4*-((S)-2-Amino-3-phenyl-propyl)-2-(3-fluoro-pyridin-4-yl)-N*7*-phenyl-thieno[3,2-d]pyrimidine-4,7-diamine]	1 to 10 µM
CC[C@@H](Nc1cc(-c2nc(N[C@@H]3CCNC3)c3sccc3n2)ccn1)c1ccccc1 [compound 590, {2-[2-((R)-1-Phenyl-propylamino)-pyridin-4-yl]-thieno[3,2-d]pyrimidin-4-yl}-(R)-pyrrolidin-3-yl-amine]	1 to 10 µM
COc1ccc(C(C)(C)C)cc1-c1c(C)sc2c(NC[C@@H](N)Cc3ccccc3)nc(-c3ccncc3)nc12 [compound 461, (S)-N*1*-[7-(5-tert-Butyl-2-methoxy-phenyl)-6-methyl-2-pyridin-4-yl-thieno[3,2-d]pyrimidin-4-yl]-3-phenyl-propane-1,2-diamine]	10 to 40 µM

same assay, conditions: full length PKCi at 15 μM ATP; read-out: IC50 in IMAP assay against full length PKCi (Activity)

SMILES	IC50
c1cc(-c2nc(O[C@@H]3CCNC3)c3c4c(sc3n2)CCCC4)ccn1 [compound 139, 2-Pyridin-4-yl-4-((R)-pyrrolidin-3-yloxy)-5,6,7,8-tetrahydro-benzo[4,5]thieno[2,3-d]pyrimidine]	1 to 10 µM
CC(C)(C)C[C@H](N)CNc1nc(-c2ccncc2)nc2sc3c(c12)CCCC3 [compound 60, (S)-4,4-Dimethyl-N*1*-(2-pyridin-4-yl-5,6,7,8-tetrahydro-benzo[4,5]thieno[2,3-d]pyrimidin-4-yl)-pentane-1,2-diamine]	1 to 10 µM
COc1ccccc1C[C@H](N)CNc1nc(-c2ccncc2)nc2sc3c(c12)CCCC3 [compound 49, (S)-3-(2-methoxy-phenyl)-N*1*-(2-pyridin-4-yl-5,6,7,8-tetrahydro-benzo[4,5]thieno[2,3-d]pyrimidin-4-yl)-propane-1,2-diamine]	1 to 10 µM
N[C@@H](CNc1nc(-c2ccncc2)nc2sc3c(c12)CCC1(C3)OCCO1)Cc1ccccc1 [compound 79, (R)-3-Phenyl-N*1*-*-1,4-Dioxa-spiro[7.7]-(2-pyridin-4-yl-5,6,7,8-tetrahydro-benzo[4,5]thieno[2,3-d]pyrimidin-4-yl)-propane-1,2-diamine]	0.1 to 1 µM
